Laboratory results as given in PMC8596838, “Xylose‐Configured Cyclophellitols as Selective Inhibitors for Glucocerebrosidase” (Chembiochem, 2021).
Read-outs that look alike come from different tables or passages of the source.

Legend:
Type in all cases: biochemical
[1] = target: T1, rhGBA (recombinant human GBA, Imiglucerase) (Homo sapiens, UniProt P04062, R534H); assay: Fluorogenic substrate (4-MU-β-D-glucoside) enzymatic assay, rhGBA; details: for inhibitory activity against GBA: in vitro, 30 min
T1 construct: purchased Sanofi Genzyme (Cambridge, MA, USA)
T1 sequence (P04062 40-536 R534H): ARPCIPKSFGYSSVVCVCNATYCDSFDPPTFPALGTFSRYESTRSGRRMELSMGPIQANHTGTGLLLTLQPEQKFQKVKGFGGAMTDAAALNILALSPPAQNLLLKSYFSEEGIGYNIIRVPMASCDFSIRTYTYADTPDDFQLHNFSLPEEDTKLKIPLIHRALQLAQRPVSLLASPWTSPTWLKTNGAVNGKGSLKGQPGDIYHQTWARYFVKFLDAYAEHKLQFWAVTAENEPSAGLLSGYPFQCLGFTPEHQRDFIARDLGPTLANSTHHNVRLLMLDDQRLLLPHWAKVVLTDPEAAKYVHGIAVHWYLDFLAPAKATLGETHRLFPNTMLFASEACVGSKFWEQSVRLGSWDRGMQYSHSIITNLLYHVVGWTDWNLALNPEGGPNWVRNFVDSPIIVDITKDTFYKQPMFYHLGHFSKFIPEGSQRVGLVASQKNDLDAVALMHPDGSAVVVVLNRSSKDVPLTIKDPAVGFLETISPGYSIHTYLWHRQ
Protocol: (§1) Using fluorogenic substrate‐based assays, we determined apparent IC50 values at 30 min incubation time of the xylo‐cyclophellitols in rhGBA, and GBA2 and GBA3 lysates of cells expressing only each of the enzymes specifically.
(§2) Enzyme activity assays: All assays were performed with lysates of HEK293T cells or zebrafish larvae in 96‐well plates at 37 °C. Samples were diluted with McIlvaine buffer (150 mM citric acid‐Na2HPO4) to a final volume of 25 μL, at pH appropriate for each enzyme. Assays were performed by incubating the samples with 100 μL 4‐methylumbelliferyl‐β‐D‐glucoside substrates diluted in McIlvaine buffer (with 0.1 % (w/v) bovine serum albumin (BSA)) for a period of 30 min or 3 h. The substrate mixtures used for each enzyme were as follows: GBA, 3.75 mM 4‐MU‐β‐D‐glucopyranoside (Glycosynth, Warrington Cheshire, UK) at pH 5.2, supplemented with 0.2 % (w/v) sodium taurocholate, 0.1 % (v/v) Triton X‐100, 0.1 % (w/v) bovine serum albumin (BSA); GBA2, 3.75 mM 4 MU‐β‐D‐glucopyranoside at pH 5.8; GBA3, 3.75 mM 4‐MU‐β‐D‐glucopyranoside at pH 6.0. After stopping the enzyme reaction with 200 μL 1 M NaOH‐glycine (pH 10.3), 4‐methylumbelliferone fluorescence was measured with a fluorimeter LS55 (Perkin Elmer, Waltham, MA, USA) with λEX 366 nm and λEM 445 nm. Enzyme activities were determined by subtraction of background (measured for incubations without enzyme). IC50 values were determined exactly as earlier described.[36]
(§3) The IC50 values were determined using a fluorogenic enzymatic assay. For GBA, 3.16 ng (53 fmol) of rhGBA, (recombinant human GBA, Imiglucerase) obtained from Sanofi Genzyme (Cambridge, MA, USA), was prepared in 12.5 μL McIlvaine buffer (150 mM, pH 5.2) supplemented with 0.1 % (v/v) Triton X‐100, and 0.2 % (w/v) sodium taurocholate, 0.1 % (w/v) bovine serum albumin (BSA). The enzyme was incubated with 12.5 μL of inhibitors diluted in McIlvaine buffer (150 mM, pH 5.2) at 37 °C for 30 min. In the case of GBA2 or GBA3, lysates of GBA/GBA2 KO HEK293T cells overexpressing GBA2 or GBA3, respectively where used. The enzymatic activity of GBA, GBA2 and GBA3 were measured with 4MU‐β‐D‐glucoside substrate as described above.

[2] = target: T2, GBA2 (Homo sapiens, UniProt Q9HCG7); assay: Fluorogenic substrate enzymatic assay, lysate of GBA/GBA2 KO HEK293T cells overexpressing GBA2; details: for (Ratio) GBA2/GBA / GBA2/GBA ratio, 3 h: IC50 ratio; for (Ratio) GBA2/GBA / inhibitory activity against GBA2: in vitro, 30 min; for IC50: n=3
T2 construct: expressed in transfected cells; host or cells: HEK293T (GBA/GBA2 KO background for the fluorogenic assay; endogenous-GBA background with GBA2 and GBA3 overexpressed for ABPP and intact-cell assays)
T2 sequence (Q9HCG7 1-927): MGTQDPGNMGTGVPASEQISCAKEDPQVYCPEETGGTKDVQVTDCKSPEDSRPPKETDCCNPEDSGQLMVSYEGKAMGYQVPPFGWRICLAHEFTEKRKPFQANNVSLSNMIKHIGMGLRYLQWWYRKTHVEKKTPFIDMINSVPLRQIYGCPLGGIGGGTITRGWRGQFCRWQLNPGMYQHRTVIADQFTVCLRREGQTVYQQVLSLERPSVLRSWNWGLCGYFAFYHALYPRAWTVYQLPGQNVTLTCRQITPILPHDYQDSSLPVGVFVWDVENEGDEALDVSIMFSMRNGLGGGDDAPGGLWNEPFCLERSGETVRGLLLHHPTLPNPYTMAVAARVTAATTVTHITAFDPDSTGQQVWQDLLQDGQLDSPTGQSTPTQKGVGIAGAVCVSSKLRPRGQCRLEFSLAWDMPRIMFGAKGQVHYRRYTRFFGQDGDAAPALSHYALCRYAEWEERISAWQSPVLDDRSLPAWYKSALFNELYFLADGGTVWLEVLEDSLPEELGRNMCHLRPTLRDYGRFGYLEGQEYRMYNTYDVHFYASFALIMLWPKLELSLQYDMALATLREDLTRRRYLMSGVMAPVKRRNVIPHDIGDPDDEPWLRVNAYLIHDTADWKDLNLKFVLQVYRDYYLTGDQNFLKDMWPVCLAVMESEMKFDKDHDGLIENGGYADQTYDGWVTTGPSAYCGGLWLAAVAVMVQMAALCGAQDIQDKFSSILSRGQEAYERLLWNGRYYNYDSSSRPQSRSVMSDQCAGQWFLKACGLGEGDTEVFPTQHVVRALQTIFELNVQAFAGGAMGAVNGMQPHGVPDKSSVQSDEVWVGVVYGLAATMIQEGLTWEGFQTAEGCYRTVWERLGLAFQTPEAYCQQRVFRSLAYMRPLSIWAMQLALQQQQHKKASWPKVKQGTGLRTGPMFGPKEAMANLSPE
Protocol: as §2
as §3, with “The enzyme was incubated with 12.5 μL of inhibitors diluted in McIlvaine buffer (150 mM, pH 5.2) at 37 °C for 30 min.” left out

[3] = target: T3, GBA3 (Homo sapiens, UniProt Q9H227); assay: Fluorogenic substrate enzymatic assay, lysate of GBA/GBA2 KO HEK293T cells overexpressing GBA3; details: for (Ratio) GBA3/GBA: IC50 ratio; for (Ratio) GBA3/GBA / inhibitory activity against GBA3: in vitro, 30 min; for IC50: incubation time 30 min, enzymatic assay, ±SD, n=3, read-out: In vitro apparent IC50 GBA3
T3 construct: expressed in transfected cells; host or cells: HEK293T (GBA/GBA2 KO background for the fluorogenic assay; endogenous-GBA background with GBA2 and GBA3 overexpressed for ABPP and intact-cell assays)
T3 sequence (Q9H227 1-469): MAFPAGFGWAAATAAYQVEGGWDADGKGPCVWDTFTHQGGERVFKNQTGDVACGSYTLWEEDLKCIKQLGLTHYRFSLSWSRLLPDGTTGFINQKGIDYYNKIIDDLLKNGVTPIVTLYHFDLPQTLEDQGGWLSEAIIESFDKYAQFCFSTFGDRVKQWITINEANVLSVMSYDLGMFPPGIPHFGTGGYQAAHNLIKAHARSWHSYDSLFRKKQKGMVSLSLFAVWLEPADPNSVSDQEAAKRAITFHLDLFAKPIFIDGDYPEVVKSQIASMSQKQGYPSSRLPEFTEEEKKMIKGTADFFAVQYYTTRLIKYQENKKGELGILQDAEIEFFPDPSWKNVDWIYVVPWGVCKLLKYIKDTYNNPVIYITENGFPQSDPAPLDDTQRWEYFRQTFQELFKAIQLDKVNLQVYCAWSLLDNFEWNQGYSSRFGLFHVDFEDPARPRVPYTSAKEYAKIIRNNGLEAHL
Protocol: as §1, §2, §3

[4] = target: T1, rhGBA (recombinant human GBA, Imiglucerase); assay: Fluorogenic substrate (4-MU-β-D-glucoside) enzymatic assay, rhGBA
[5] = incubation time 30 min, enzymatic assay, ±SD, n=3, read-out: In vitro apparent IC50 rhGBA
[6] = incubation time 30 min, enzymatic assay, ±SD, read-out: In vitro apparent IC50 GBA2
[7] = enzymatic assay performed for 3 h, read-out: In vitro apparent IC50 GBA2, 3 h

| IC50 ([4]; enzymatic assay performed for 3 h, n=3, read-out: In vitro apparent IC50 rhGBA, 3 h) | Structure (SMILES) | IC50 [1, 5] | (Ratio) GBA2/GBA [2] | IC50 [2, 6] | (Ratio) GBA3/GBA [3] | IC50 [3] | inhibitory activity against GBA [1] | inhibitory activity against GBA2 [2] | inhibitory activity against GBA3 [3] | GBA2/GBA ratio, 3 h ([2]; in vitro 3 h) | IC50 [2, 7] | IC50 [1] | increase in inhibitory activity towards GBA2 of aziridines relative to epoxide analogues ([2]; in vitro 3 h) | increase in inhibitory activity towards GBA of aziridines relative to epoxide analogues ([4]; in vitro 3 h) |
| --- | --- | --- | --- | --- | --- | --- | --- | --- | --- | --- | --- | --- | --- | --- |
| – | O=C(CCCCC1SCC2NC(=O)NC21)NCc1cn(CCCCCCCCN2C3CC(O)C(O)C(O)C32)nn1 (centres unmarked) [ABP 7] | 164 ± 22.1 nM | 295 | 48300 ± 9010 nM | 155 | 25300 ± 5010 nM | – | – | – | – | – | – | – | – |
| – | CC1=CC(C)=[N+]2C1=C(CCCCc1cn(CCCCCCCCN3[C@H]4[C@H](O)[C@@H](O)[C@H](O)C[C@H]43)nn1)c1c(C)cc(C)n1[B-]2(F)F (some centres unmarked) [ABP 8] | 2.7 ± 0.45 nM | 23 | 61.2 ± 12 nM | 193 | 522 ± 209 nM | – | – | – | – | – | – | – | – |
| – | CN1/C(=C/C=C/C=C/C2=[N+](CCCCCC(=O)NCc3cn(CCCCCCCCN4[C@@H]5[C@H](CO)[C@@H](O)[C@H](O)[C@@H](O)[C@@H]54)nn3)c3ccccc3C2(C)C)C(C)(C)c2ccccc21 (some centres unmarked) [ABP 10, reference compound] | 8.1 ± 1.94 nM | 2.6 | 21.5 ± 0.42 nM | 1 | 8.54 ± 1.18 nM | – | – | – | – | – | – | – | – |
| – | O[C@@H]1[C@@H](O)[C@H](O)C[C@@H]2O[C@H]12 [compound 11, α‐D‐xylose‐configured cyclophellitol] | – | – | – | – | – | no or little inhibitory activity | no or little inhibitory activity | no or little inhibitory activity | – | – | – | – | – |
| – | O[C@@H]1[C@@H](O)[C@H](O)C[C@@H]2N[C@H]12 [compound 12] | – | – | 55800 ± 2340 nM | – | – | no or little inhibitory activity | no or little inhibitory activity | no or little inhibitory activity | – | – | – | – | – |
| 2630 ± 340 nM | O[C@H]1[C@H](O)[C@@H](O)[C@@H]2O[C@@H]2[C@@H]1O [compound 13, Conduritol B‐epoxide, reference compound] | 34900 ± 1670 nM | >14 | > 500000 nM | >14 | > 500000 nM | – | – | – | 40 | 105000 ± 5850 nM | – | – | – |
| – | O[C@H]1[C@H](O)[C@@H](O)[C@@H]2N[C@@H]2[C@@H]1O [compound 14, conduritol B‐aziridine, reference compound] | – | – | – | – | – | – | – | – | 6.6 | 10800 ± 3300 nM | 1630 ± 70 nM | 10–20 fold | less than two‐fold increase |
